Data reported in PMC9632859, “Modulation of NMDA receptor activity by CR4056, an imidazoline-2 receptor ligand with analgesic properties” (Frontiers in Pain Research, 2022).

Key:
[1] = tested on: field potentials from dorsal horn laminae I-II (mainly mediated by AMPARs); assay: Extracellular field potentials evoked by dorsal root stimulation in spinal cord slices; assay type: cell-based, rat; conditions: 6 slices; p > 0.05
Text: Sprague–Dawley rats (male and female at postnatal days P15-P23) were anaesthetized with isoflurane and decapitated. The spinal cord and vertebrae were rapidly removed and placed in ice-cold dissecting Krebs' solution (composition in mM: 90 NaCl, 50 sucrose, 2.5 KCl, 25 NaHCO3, 1 NaH2PO4·H2O, 25 glucose, 6 MgCl2, 1.5 CaCl2, 1 kynurenic acid), bubbled with carboxygen (95% O2, 5% CO2). The lumbar part of the spinal cord was isolated, embedded in low melting point agarose (3% w/v, Thermo Fisher Scientific, Waltham, United States), and transverse slices (500 µm thick) were obtained using a vibrating microtome (WPI, Sarasota, United States). […]
Neurons in spinal cord slices were visualized using an Axioskop microscope (Zeiss, Oberkochen, Germany), fitted with Nomarski optics and connected to a CCD camera (Dage-MTI, Michigan City, United States). […] Data were recorded and acquired using a MultiClamp 700A amplifier and the pClamp 10 software (Molecular Devices, Sunnyvale, United States). […] Extracellular field potentials were recorded by positioning a glass pipette (3–5 µm diameter, filled with Krebs' extracellular solution) on lamina II in spinal cord slices. […]
To determine whether the effect of CR4056 on NMDA EPSCs was due to a decrease of glutamate release from primary afferents or to a modulation of NMDARs, we recorded extracellular field potentials evoked by dorsal root stimulation (Figure 4E). […]

[2] = tested on: NMDA-mediated postsynaptic excitatory currents (EPSCs); assay: NMDA EPSCs evoked by dorsal root stimulation in lamina II neurons of spinal cord slices; assay type: cell-based, rat
Text: (§1) Sprague–Dawley rats (male and female at postnatal days P15-P23) were anaesthetized with isoflurane and decapitated. The spinal cord and vertebrae were rapidly removed and placed in ice-cold dissecting Krebs' solution (composition in mM: 90 NaCl, 50 sucrose, 2.5 KCl, 25 NaHCO3, 1 NaH2PO4·H2O, 25 glucose, 6 MgCl2, 1.5 CaCl2, 1 kynurenic acid), bubbled with carboxygen (95% O2, 5% CO2). The lumbar part of the spinal cord was isolated, embedded in low melting point agarose (3% w/v, Thermo Fisher Scientific, Waltham, United States), and transverse slices (500 µm thick) were obtained using a vibrating microtome (WPI, Sarasota, United States). Slices were incubated in oxygenated incubation Krebs' solution (composition in mM: 125 NaCl, 2.5 KCl, 25 NaHCO3, 1 NaH2PO4·H2O, 25 glucose, 6 MgCl2, 1.5 CaCl2) at 32°C for 30 min and then used for recording.
Neurons in spinal cord slices were visualized using an Axioskop microscope (Zeiss, Oberkochen, Germany), fitted with Nomarski optics and connected to a CCD camera (Dage-MTI, Michigan City, United States). Patch-clamp recordings were performed by using thick-walled borosilicate pipettes (3–5 MOhm resistance). Data were recorded and acquired using a MultiClamp 700A amplifier and the pClamp 10 software (Molecular Devices, Sunnyvale, United States). Sampling rate was 10 kHz, and data were filtered at 2–5 kHz. The dorsal root attached to each slice was stimulated using a suction electrode. Stimulus duration was 0.1 ms, stimulus intensity was 500 µA, able to activate both A and C primary afferent fibers ([20]). Extracellular field potentials were recorded by positioning a glass pipette (3–5 µm diameter, filled with Krebs' extracellular solution) on lamina II in spinal cord slices. […]
We next investigated the modulatory effect of CR4056 on NMDA-mediated postsynaptic excitatory currents (EPSCs) recorded from lamina II neurons in rat spinal cord slices. […] To isolate NMDA EPSCs (recorded in voltage clamp at +40 mV), AMPA, GABAA and glycine receptors were blocked by NBQX (10 µM), bicuculline (10 µM), and strychnine (0.5 µM), respectively. […]

PKCε translocation = tested on: PKCε translocation; parameters: method as in PMID 31454418; conditions: activated sensory neurons, cultured DRG; cited from earlier work
NMDA receptor = assay: NMDA-evoked currents in primary culture of cerebellar neurons, whole-cell patch-clamp; assay type: cell-based, rat; conditions: CR4056 10 µM, glycine 1-500 µM, one-way ANOVA
Method: Primary cultures of cortical (CX) and cerebellar (CB) neurons were prepared from newborn (CX) or seven days old (CB) Sprague-Dawley rats Briefly, cells from cortex and cerebellum were dispersed with trypsin (0.24 mg/ml; Sigma Aldrich, Milan, Italy) and plated at a density of 0.8 × 10^6 cells/ml on 35 mm Falcon dishes coated with poly-L-lysine (10 µg/ml, Sigma Aldrich). Cells were plated in basal Eagle's Medium (BME; Celbio, Milan, Italy), supplemented with 10% fetal bovine serum (Celbio), 2 mM glutamine, 25 mM KCl and 100 µg/ml gentamycin (Sigma Aldrich) and maintained at 37°C in 5% CO2. After 24 h in vitro, the medium was replaced with 1:1 mixture of BME and Neurobasal medium (Celbio, Milan) containing 2% B27 supplement, 1% antibiotic, and 0.25% glutamine (Invitrogen). At […] in vitro (DIV5), cytosine arabinofuranoside (Ara-C) was added at final concentration of 1 µM. […]
The effect of CR 4056 in primary neuronal cultures was calculated as % variation of the NMDA-evoked current after application of the drug. […]
Glycine is an important co-agonist of the NMDA receptor. To test the dependence of CR4056 modulation on glycine concentration we measured the reduction of NMDA current by CR4056 (10 µM) in the presence of 1, 5, 10, 50, 100, and 500 µM glycine.

GluN1-GluN2B receptors = GluN1-GluN2B receptors (Homo sapiens, UniProt Q05586+Q13224); assay: NMDA-evoked currents in JM4C fibroblasts expressing GluN1-GluN2B; assay type: cell-based
Sequence of GluN1-GluN2B receptors (Q13224 27-1484, other chains not shown): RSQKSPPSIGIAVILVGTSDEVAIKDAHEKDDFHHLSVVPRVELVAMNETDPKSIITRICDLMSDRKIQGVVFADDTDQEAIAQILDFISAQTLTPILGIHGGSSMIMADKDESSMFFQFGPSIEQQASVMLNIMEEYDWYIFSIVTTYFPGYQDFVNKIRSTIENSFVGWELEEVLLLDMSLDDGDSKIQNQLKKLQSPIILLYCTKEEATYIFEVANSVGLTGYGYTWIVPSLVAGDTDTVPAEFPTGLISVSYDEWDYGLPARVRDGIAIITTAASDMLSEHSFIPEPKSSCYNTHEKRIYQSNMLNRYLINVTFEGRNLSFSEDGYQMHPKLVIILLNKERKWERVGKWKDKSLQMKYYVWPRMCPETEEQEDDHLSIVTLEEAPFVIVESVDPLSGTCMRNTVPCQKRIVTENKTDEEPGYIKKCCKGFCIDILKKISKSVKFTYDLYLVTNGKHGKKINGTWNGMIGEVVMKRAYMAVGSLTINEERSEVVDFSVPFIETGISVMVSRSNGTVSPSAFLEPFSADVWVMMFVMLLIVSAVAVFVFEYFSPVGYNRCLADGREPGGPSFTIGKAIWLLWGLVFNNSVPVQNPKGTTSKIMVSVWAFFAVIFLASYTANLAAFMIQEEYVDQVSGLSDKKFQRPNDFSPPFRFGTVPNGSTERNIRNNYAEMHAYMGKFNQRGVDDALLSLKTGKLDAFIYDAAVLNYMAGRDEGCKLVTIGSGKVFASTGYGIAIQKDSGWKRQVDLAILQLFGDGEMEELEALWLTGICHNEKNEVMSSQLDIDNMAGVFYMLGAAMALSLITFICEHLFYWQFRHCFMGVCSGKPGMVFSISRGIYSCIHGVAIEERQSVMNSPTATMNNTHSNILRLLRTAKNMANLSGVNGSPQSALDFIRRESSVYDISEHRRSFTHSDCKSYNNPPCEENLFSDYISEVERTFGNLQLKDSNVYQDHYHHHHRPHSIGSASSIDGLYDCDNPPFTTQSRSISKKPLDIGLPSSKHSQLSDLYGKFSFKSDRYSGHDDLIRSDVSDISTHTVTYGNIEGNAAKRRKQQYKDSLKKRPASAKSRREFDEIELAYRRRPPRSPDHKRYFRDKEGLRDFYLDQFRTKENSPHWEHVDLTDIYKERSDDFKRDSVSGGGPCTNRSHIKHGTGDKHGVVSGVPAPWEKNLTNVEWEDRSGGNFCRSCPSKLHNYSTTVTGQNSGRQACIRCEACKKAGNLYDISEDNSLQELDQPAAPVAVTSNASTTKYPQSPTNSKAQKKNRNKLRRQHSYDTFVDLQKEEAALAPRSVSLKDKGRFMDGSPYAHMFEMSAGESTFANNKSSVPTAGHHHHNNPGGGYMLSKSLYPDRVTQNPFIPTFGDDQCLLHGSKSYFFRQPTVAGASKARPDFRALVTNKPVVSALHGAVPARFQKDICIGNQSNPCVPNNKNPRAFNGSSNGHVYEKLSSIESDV
Method: Mouse connective tissue fibroblasts JM4C cells stably transfected with NR1A/NR2A or NR1A/NR2B human NMDA inducible receptors were kindly donated by Dr. Paul Whiting, Merk Sharp / Dohme (UK). They were grown in Dulbecco's Modified Basal Eagle's medium (DMEM) with Na+ pyruvate, 4,500 mg glucose and glutamine. For growing, DMEM was added with geneticin 1 mg/ml (Sigma) and foetal bovine serum 10% (Celbio). One day before experiment, fibroblasts confluent dishes were split with trypsin-EDTA 0.05% (Euroclone) and plated at the density of 0.5 × 10^6 cells/ml in 2 ml dishes containing an inducing DMEM with ketamine (final concentration 0.015%, Gellini International, Italy) and 25 nM dexamethasone (Sigma Aldrich) to induce NMDA receptors expression.
Recordings were performed in cortical and cerebellar neurons after 7–9 days in culture or in spinal cord slices from postnatal rats. All recordings were performed at room temperature, under voltage-clamp in the whole-cell configuration of the patch-clamp technique ([19]). […] Currents were amplified with an Axopatch 1D amplifier (Axon Instruments, Foster City. CA), filtered at 5 kHz, digitized at 10 kHz.
The chamber used for recording from cultured neurons was continuously perfused at 2 ml/min with an extracellular medium composed of (mM): 145 NaCl, 5 KCl, 1 CaCl2, 5 Hepes, 5 Glucose, and 20 Sucrose, pH 7.4 with NaOH. Intracellular solution contains (mM): 140 KCl, 3 MgCl2, 5 EGTA, 5 Hepes, and 2 ATP-Na, pH 7.3 with KOH.
All drugs were applied directly by gravity through a Y-tube perfusion system ([21]) in the experiments performed in culture while in slice experiments CR4056 and the receptor antagonists were bath perfused.
Increasing concentrations of CR4056 (0.1–100 µM) were applied to NMDA-evoked currents in fibroblasts expressing GluN1- GluN2A or GluN1- GluN2B subunits (Figure 3A).

[3] = tested on: lamina II neuron excitability; assay: Current-clamp recording of summated EPSPs and action potentials on repetitive dorsal root stimulation; assay type: cell-based, rat
Text: as §1
Neurons in spinal cord slices were visualized using an Axioskop microscope (Zeiss, Oberkochen, Germany), fitted with Nomarski optics and connected to a CCD camera (Dage-MTI, Michigan City, United States). Patch-clamp recordings were performed by using thick-walled borosilicate pipettes (3–5 MOhm resistance). Data were recorded and acquired using a MultiClamp 700A amplifier and the pClamp 10 software (Molecular Devices, Sunnyvale, United States). Sampling rate was 10 kHz, and data were filtered at 2–5 kHz. The dorsal root attached to each slice was stimulated using a suction electrode. Stimulus duration was 0.1 ms, stimulus intensity was 500 µA, able to activate both A and C primary afferent fibers ([20]). Extracellular field potentials were recorded by positioning a glass pipette (3–5 µm diameter, filled with Krebs' extracellular solution) on lamina II in spinal cord slices. Extracellular synaptic potentials were evoked by dorsal root stimulation, as described above, and amplified by using a Multiclamp 700A amplifier (Molecular Devices, Sunnyvale, United States).
For the experiments on neurons in slices the following Krebs' extracellular solution was used (composition in mM): 125 NaCl, 2.5 KCl, 25 NaHCO3, 1 NaH2PO4·H2O, 25 glucose, 1 MgCl2, 2 CaCl2. A cesium-based internal solution was used during the voltage-clamp experiments (composition in mM: 120 caesium methanesulfonate, 10 sodium methanesulfonate, 10 EGTA, 1 CaCl2, 10 Hepes, 5 lidocaine N-ethyl bromide quaternary salt-Cl, 5 MgATP, pH adjusted to 7.2 with CsOH, osmolarity 290 mOsmol L^−1), while a potassium-based solution was utilized for the experiments in current-clamp (composition in mM: 120 potassium methanesulfonate, 10 NaCl, 10 EGTA, 1 CaCl2, 10 Hepes, 5 MgATP, pH adjusted to 7.2 with KOH, osmolarity 300 mOsmol L^−1).
Finally, we tested whether CR4056 was able to depress lamina II neuron excitability in response to repetitive stimulation of the dorsal root. […]

[4] = CR4056 10 µM, 4 pulses 5–10 Hz, 500 µA

## c1ccc(-c2ncc3cc(-n4ccnc4)ccc3n2)cc1 [CR4056, 2-phenyl-6-(1H-imidazol-1yl)quinazoline]
[1]
  effect on field potential area: did not affect
[2]; CR4056 10 µM, +40 mV, NBQX, bicuculline, strychnine present, 7 neurons
  average reduction in NMDA EPSC amplitude: 26.3 ± 4.2%
[2]; after washing of CR4056, N 7
  EPSC amplitude in WASH, mean: 514.986 pA
[2]; during CR4056, N 7, control mean 597.629
  EPSC amplitude in CR, mean: 475.443 pA
PKCε translocation
  effect on PKCε translocation: reduces PKCε translocation
NMDA receptor
  effect on NMDA current at high glycine concentrations: significatively reduced
GluN1-GluN2B receptors; 0.1–100 µM, read-out: IC50 of reduction of NMDA-evoked current, GluN1-GluN2B
  IC50: 11 ± 2 µM
GluN1-GluN2B receptors; read-out: efficacy (Eff, maximal effect) on NMDA-evoked current, GluN1-GluN2B
  Emax: -86 ± 6%
[3]; [4]
  change of area of the summated EPSPs: −29.7 ± 5.4%
  change of mean number of action potentials generated at each train: −50.9 ± 12.6%
[3]; during CR4056, N 7, control mean 11858.457
  EPSP area in CR, mean: 8924.714 mV*ms
